In US20100324086A1, “COMPOUNDS AND METHODS” (Novasaid AB, priority 2008, published 2010):

Experiments:
[1] = biological target: T1, recombinant, membrane-bound mPGES-1 (Homo sapiens, UniProt O14684); assay: Thiobarbituric acid assay (TBA-MDA assay), inhibition of mPGES-1; format: biochemical; conditions: remaining PGH2 measured at 535 nm
T1 sequence (O14684 1-152): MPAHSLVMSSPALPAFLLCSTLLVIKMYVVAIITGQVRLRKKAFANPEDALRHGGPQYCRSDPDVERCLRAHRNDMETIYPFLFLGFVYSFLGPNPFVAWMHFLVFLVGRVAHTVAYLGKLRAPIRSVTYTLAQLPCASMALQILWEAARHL
Excerpt: Malondialdehyde is a product of lipid peroxidation and reacts with thiobarbituric acid forming a red product that absorbs at 535 nm (W. G. Niehaus, Jr and B. Samuelsson, Eur. J. Biochem 6, 126 (1968). The extinction coefficient of the TBA-MDA conjugate is 1.56×10^5 M^−1 cm^−1 (E. D. Wills. Biochem. J. 113, 315 (1969).
The method used for detection of inhibition of mPGES-1 is based on the detection of the amount of remaining PGH2. This method was described more than 20 years ago by Basevich et al (Bioorg. Khim. 1983, 9(5), 658-665.
The assay used was a modified variant and used citric acid instead of the TCA-TBA-HCl reagent described in the original assay. In this assay recombinant, membrane-bound mPGES-1 was incubated with PGH2. The reaction was stopped by adding citric acid with a final pH of 3 and a large excess of FeCl2 (20 mM) to convert any remaining PGH2 into MDA and […]. TBA reagent was finally added (0.67%) and the samples were heated at 80° C. for 30 min. The absorbance of the conjugate was measured at 535 nm.
The product of mPGES-1 (PGE2) was not measured directly in this assay, but rather the remaining substrate (PGH2) indirectly by adding FeCl2 that converts PGH2 into […] and 12-HHT. As a positive control a known mPGES-1 inhibitor, MK-886, was used and the new inhibitors were compared with the inhibition of MK-886 (% of MK-886 inhibition).

[2] = system: A549 lung carcinoma cells; assay: A549 assay, PGE2 content in supernatant by EIA; format: cell-based; conditions: TNFalfa and IL-1beta induced 16 h, 30 min compound, then 10 μM arachidonic acid 30 min
Description: A549 lung carcinoma cells, seeded at a density of 10,000 cells/well, were grown in 96 well tissue culture plates. TNFalfa (5 ng/ml) and […] (5 ng/ml) were added and the cells were incubated for 16 hours. Cells were washed in PBS and test compounds at the appropriate concentration in HBSS/0.1% BSA were added. After 30 minutes incubation with test compounds, 10 μM arachidonic acid was added and cells were further incubated for 30 minutes. Supernatant was collected and analyzed for PGE2 content by EIA according to manufacturer's instructions.

Structure (SMILES) | IC50 [1] [nM] | EC50 [2] [nM] | EC50 ([2]; Homo sapiens, A549) [nM]
O=C(Nc1cccc2cccnc12)c1cccc(NC(=O)c2ccccc2Cl)c1 [Compound 8, 3-(2-Chloro-benzoylamino)-N-(quinolin-8-yl-)-benzamide] | 800 | 2960 | 
O=C(NC1CCc2ccccc21)c1cccc(NC(=O)c2ccccc2Cl)c1 (centres unmarked) [Compound 34, 3-(2-Chloro-benzoylamino)-N-indan-1-yl-benzamide] | 720 |  | 5400
C[C@H](NC(=O)c1cccc(NC(=O)c2ccccc2C(F)(F)F)c1)c1cccc2ccccc12 [Compound 77, N-[3-((S)-1-Naphthalen-1-yl-ethylcarbamoyl)-phenyl]-2-trifluoromethyl-benzamide] | 290 |  | 400
C[C@H](NC(=O)c1cccc(NC(=O)c2ccccc2I)c1)c1cccc2ccccc12 [Compound 79, 2-Iodo-N-[3-((S)-1-naphthalen-1-yl-ethylcarbamoyl)-phenyl]-benzamide] | 200 |  | 1230
C[C@@H](NC(=O)c1cccc(NC(=O)c2ccccc2C(F)(F)F)c1)c1cccc2ccccc12 [Compound 93, N-[3-((R)-1-Naphthalen-1-yl-ethylcarbamoyl)-phenyl]-2-trifluoromethyl-benzamide] | 120 |  | 450
C[C@@H](NC(=O)c1cccc(NC(=O)c2ccccc2I)c1)c1cccc2ccccc12 [Compound 96, 2-Iodo-N-[3-((R)-1-naphthalen-1-A-ethylcarbamoyl)-phenyl]-benzamide] | 230 |  | 
C[C@@H](NC(=O)c1cccc(NC(=O)c2ccccc2Cl)c1)c1cccc2ccccc12 [Compound 101, 2-Chloro-N-[3-((R)-1-naphthalen-1-yl-ethylcarbamoyl)-phenyl]-benzamide] | 290 |  | 
O=C(NCc1cccc2ccccc12)c1cccc(NC(=O)c2ccccc2Br)c1 [Compound 103, 2-Bromo-N-{3-[(naphthalen-1-ylmethyl)-carbamoyl]-phenyl}-benzamide] | 180 |  | 
O=C(NCc1cccc2ccccc12)c1cccc(NC(=O)c2ccccc2F)c1 [Compound 104, 2-Fluoro-N-{3-[(naphthalen-1-ylmethyl)-carbamoyl]-phenyl}-benzamide] | 1100 |  | 640
O=C(NCc1cccc2ccccc12)c1cccc(NC(=O)c2c(Cl)cccc2Cl)c1 [Compound 105, 2,6-Dichloro-N-{3-[(naphthalen-1-ylmethyl)-carbamoyl]-phenyl}-benzamide] | 520 |  | 
COc1cccc(OC)c1C(=O)Nc1cccc(C(=O)NCc2cccc3ccccc23)c1 [Compound 108, 2,6-Dimethoxy-N-{3-[(naphthalen-1-ylmethyl)-carbamoyl]-phenyl}-benzamide] | 2200 |  | 
O=C(NCc1cccc2ccccc12)c1cccc(NC(=O)c2ccccc2C(F)(F)F)c1 [Compound 109, N-{3-[(Naphthalen-1-ylmethyl)-carbamoyl]-phenyl}-2-trifluoromethyl-benzamide] | 130 |  | 
Cc1ccccc1C(=O)Nc1cccc(C(=O)NCc2cccc3ccccc23)c1 [Compound 110, N-{3-[(Naphthalen-1-ylmethyl)-carbamoyl]-phenyl}-2-methyl-benzamide] | 330 |  | 
O=C(NCc1cccc2ccccc12)c1cccc(NC(=O)c2ccccc2I)c1 [Compound 112, 2-Iodo-N-{3-[(naphthalen-1-ylmethyl)-carbamoyl]-phenyl}-benzamide] | 220 |  | 
O=C(NCc1cccc2ccccc12)c1cccc(NC(=O)c2ccccc2-c2cccs2)c1 [Compound 116, N-{3-[(Naphthalen-1-ylmethyl)-carbamoyl]-phenyl}-2-thiopene-2-yl-benzamide] | 2500 |  | 
O=C(NCc1cccc2ccccc12)c1cccc(NCc2ccccc2Br)c1 [Compound 122, 3-(2-Bromo-benzylamino)-N-naphthalen-1-ylmethyl-benzamide] | 1000 |  | 
O=C(Nc1cccc(CNCc2ccccc2C(F)(F)F)c1)c1ccccc1C(F)(F)F [Compound 125, 2-Trifluoromethyl-N-{3-[(2-trifluoromethyl-benzylamino)-methyl]-phenyl}-benzamide] | 1800 |  | 
O=C(NCc1ccccc1C(F)(F)F)c1cccc(NC(=O)c2ccccc2C(F)(F)F)c1 [Compound 134, 3-(2-Trifluoromethyl-benzoylamino)-N-(2-trifluoromethyl-benzyl)-benzamide] | 70 |  | 

Structure (SMILES) | IC50 [1] [nM] | EC50 [2] [nM] | EC50 ([2]; Homo sapiens, A549) [nM]
O=C(NCc1ccccc1Br)c1cccc(NC(=O)c2ccccc2C(F)(F)F)c1 [Compound 135, N-(2-Bromo-benzyl)-3-(2-trifluoromethyl-benzoylamino)-benzamide] | 65 |  | 
O=C(NCc1ccccc1-c1ccccc1)c1cccc(NC(=O)c2ccccc2C(F)(F)F)c1 [Compound 136, N-(2-Phenyl-benzyl)-3-(2-trifluoromethyl-benzoylamino)-benzamide] | 200 |  | 
O=C(NCc1cccc(-c2ccccc2)c1)c1cccc(NC(=O)c2ccccc2C(F)(F)F)c1 [Compound 137, N-(3-Phenyl-benzyl)-3-(2-trifluoromethyl-benzoylamino)-benzamide] | 320 |  | 
O=C(NCc1cccc(Br)c1)c1cccc(NC(=O)c2ccccc2C(F)(F)F)c1 [Compound 138, N-(3-Bromo-benzyl)-3-(2-trifluoromethyl-benzoylamino)-benzamide] | 160 |  | 
Cc1cccc(CNC(=O)c2cccc(NC(=O)c3ccccc3C(F)(F)F)c2)c1C [Compound 139, N-(2,3-Dimethyl-benzyl)-3-(2-trifluoromethyl-benzoylamino)-benzamide] | 75 |  | 
O=C(Nc1ccc2cccc(O)c2n1)c1cccc(NC(=O)c2ccccc2C(F)(F)F)c1 [Compound 140, N-(8-hydroxy-quinolin-2-yl)-3-(2-trifluoromethyl-benzoylamino)-benzamide] | 1900 |  | 
O=C(NCc1ccccc1)c1cccc(NC(=O)c2ccccc2C(F)(F)F)c1 [Compound 141, N-(Benzyl)-3-(2-trifluoromethyl-benzoylamino)-benzamide] | 280 |  | 
Cc1ccccc1CNC(=O)c1cccc(NC(=O)c2ccccc2C(F)(F)F)c1 [Compound 142, N-(2-Methyl-benzyl)-3-(2-trifluoromethyl-benzoylamino)-benzamide] | 1000 |  | 
O=C(NCc1ccccc1Cl)c1cccc(NC(=O)c2ccccc2C(F)(F)F)c1 [Compound 143, N-(2-Chloro-benzyl)-3-(2-trifluoromethyl-benzoylamino)-benzamide] | 220 |  | 
COc1ccccc1CNC(=O)c1cccc(NC(=O)c2ccccc2C(F)(F)F)c1 [Compound 144, N-(2-Methoxy-benzyl)-3-(2-trifluoromethyl-benzoylamino)-benzamide] | 840 |  | 
CN(C)c1ccccc1CNC(=O)c1cccc(NC(=O)c2ccccc2C(F)(F)F)c1 [Compound 145, N-(2-Dimethylamino-benzyl)-3-(2-trifluoromethyl-benzoylamino)-benzamide] | 470 |  | 
O=C(NCc1ccccc1N1CCCCC1)c1cccc(NC(=O)c2ccccc2C(F)(F)F)c1 [Compound 146, N-(2-piperidin-1-yl-benzyl)-3-(2-trifluoromethyl-benzoylamino)-benzamide] | 170 |  | 
O=C(NCc1ccccc1OC(F)(F)F)c1cccc(NC(=O)c2ccccc2C(F)(F)F)c1 [Compound 147, N-(2-Trifluoromethoxy-benzyl)-3-(2-trifluoromethyl-benzoylamino)-benzamide] | 110 |  | 
O=C(NCc1cccc2c1OCCO2)c1cccc(NC(=O)c2ccccc2C(F)(F)F)c1 [Compound 148, N-(2,3-dihydro-benzo[1,4]dioxin-5-ylmethyl)-3-(2-trifluoromethyl-benzoylamino)-benzamide] | 990 |  | 
O=C(NCc1ccccc1N1CCOCC1)c1cccc(NC(=O)c2ccccc2C(F)(F)F)c1 [Compound 149, N-(2-morpholin-4-yl-benzyl)-3-(2-trifluoromethyl-benzoylamino)-benzamide] | 2000 |  | 
O=C(Nc1nc2cc(Cl)ccc2o1)c1cccc(NC(=O)c2ccccc2C(F)(F)F)c1 [Compound 164, N-(3-(5-chlorobenzo[d]oxazol-2-ylcarbamoyl)phenyl)-2-(trifluoromethyl)benzamide] | 68 |  | 
O=C(Nc1ccc(-c2ccccc2)cn1)c1cccc(NCc2ccccc2C(F)(F)F)c1 [Compound 166, 3-[2-(Trifluoromethyl)-benzylamino]-N-(5-phenyl-pyridine-2-yl)-benzamide] | 53 |  | 
